Reference: patent publication US20230158124A1, “DRUG, FOOD AND APPLICATION OF ANTI-CORONAVIRUS INFECTION” (priority 2020, published 2023)

Tests used:
[1] = tested on: novel coronavirus; assay: In vitro inhibition of cytopathic effect caused by novel coronavirus in Vero E6 cells (CCK8); format: cell-based, COVID-19 novel coronavirus; conditions: for inhibition of cytopathic effect caused by the novel coronavirus (in words): Vero E6, summary of Table 1
[2] = tested on: Claudin-1 mRNA; assay: Expression of intestinal tissue tight junction protein in LPS mice, jejunum, quantitative PCR (Claudin-1); format: in vivo; conditions: 100 mg/kg, model 0.73 ± 0.13, blank 1.07 ± 0.11
Method: (§1) Grouping and administration of animals: the animals were randomly divided into a blank group, a model group, a lysozyme group (100 mg/kg), a lysozyme+monoammonium glycyrrhizinate group A (100 mg/kg+2 mg/kg), a lysozyme+monoammonium glycyrrhizinate group B (100 mg/kg+10 mg/kg), a lysozyme+monoammonium glycyrrhizinate group C (100 mg/kg+20 mg/kg), and a lysozyme+dipotassium glycyrrhizinate group (100 mg/kg+2 mg/kg), with eight animals in each group. Each drug group was administrated by oral gavage according to the dosage every day, while the blank group and the model group were administrated with normal saline. The administration was continuously performed for 30 days.
(§2) Modeling: after the administration, the animals of each group except the blank group were intraperitoneally injected with 15 mg/kg lipopolysaccharide, and the blank group was injected with the normal saline. The animals were fasted for 12 hours after injection.
(§3) Determination of the expression of intestinal tissue tight junction protein: after the animals were killed, the jejunum tissue sample was taken to extract RNA, and relative expression levels of […] in the tissue were detected by quantitative PCR.

[3] = tested on: IL-6 mRNA; format: cell-based, African green monkey; conditions: 350 μg/mL; virus control 7.68 ± 0.50, blank 1.08 ± 0.07
[4] = tested on: intestinal barrier dysfunction of mice induced by lipopolysaccharide; assay: Intestinal permeability (serum FITC-glucan) in mice with intestinal barrier dysfunction induced by lipopolysaccharide; format: in vivo; conditions: 100 mg/kg oral gavage 30 days; model 35.06 ± 5.75, blank 9.40 ± 1.45
Method: Lipopolysaccharide could cause intestinal dysfunction of animals. The protective effects of the lysozyme and the combination containing lysozyme on the intestinal barrier dysfunction of mice induced by the lipopolysaccharide were researched in the test.
Test animals: male C57BL/6 mice with a cleaning degree, and with a weight ranging from 20 g to 25 g.
as §1, with “days. […]” for “days.”
Measurement of intestinal permeability: animals of each group were administrated by oral gavage with 600 mg/kg FITC-glucan (dissolved in a phosphate buffer), and blood was taken from an eyeball after 4 hours. The content of the FITC-glucan in serum was measured by fluorescence spectrometry (with an excitation wavelength of 480 nm and an emission wavelength of 520 nm).

[5] = tested on: guinea pig inhaling smoke; assay: Airway resistance and lung function of guinea pig inhaling smoke; format: in vivo; conditions: once daily 4 weeks
Method: A smoked model is a classic animal modeling method of chronic obstructive pulmonary disease. After inhaling smoke for a long time, the animal may suffer from increase of mucus secretion, airway obstruction, and decrease of lung function. The effect of lysozyme on the airway obstruction was evaluated by the modeling method.
Male Hartley guinea pigs with weights ranging from 400 g to 500 g were randomly divided into a blank group, a model group, a lysozyme oral administration group (200 mg/kg), a lysozyme inhalation group (2 mg/kg), a lysozyme+monoammonium glycyrrhizinate inhalation group (2 mg/kg+0.1 mg/kg), a lysozyme+monopotassium glycyrrhizinate oral administration group I (200 mg/kg+20 mg/kg), and a lysozyme+monopotassium glycyrrhizinate oral administration group II (200 mg/kg+40 mg/kg), with eight animals in each group.
The animals in each group except the blank group were exposed to cigarette smoke by using a smoke exposure system inhaled only through nose and mouth, so that the animals inhaled smoke of five cigarettes within 40 minutes every day, for 5 days every week, and for 12 consecutive weeks.
Lysozyme and monoammonium glycyrrhizinate used for inhalation administration were respectively crushed into powder with a particle size less than […]. Then lysozyme and monopotassium glycyrrhizinate used for oral administration were respectively dissolved in normal saline.
The animals in each group except the blank group and the model group were administrated once every day for 4 consecutive weeks from the 8t^h week after modeling. The inhalation groups were administrated by a mouth and nose inhalation exposure system, while the oral administration groups were administrated by oral gavage. The blank group and the model group were administrated by oral gavage with normal saline every day.
Airway resistance measurement and the measurement of force expiratory volume in 100ms(millisecond) were performed after administration.
The animals were placed in a double chamber plethysmography system, and a specific airway resistance (sRaw) was measured after the animals were quiet for 10 minutes. The animals were anesthetized by intramuscular injection of ketamine, then a catheter was inserted into the trachea, and the force expiratory volume in 100ms […] was measured by a lung function detection system.

[6] = tested on: Occludin mRNA; assay: Expression of intestinal tissue tight junction protein in LPS mice, jejunum, quantitative PCR (occludin); format: in vivo; conditions: 100 mg/kg, model 0.54 ± 0.09, blank 1.04 ± 0.12
Method: as §1, §2, §3

[7] = tested on: TNF-α mRNA; format: cell-based, African green monkey; conditions: 350 μg/mL; virus control 3.61 ± 0.29, blank 1.01 ± 0.06
[8] = 1,000 μg/mL, Vero E6, 100TCID50, 4 days
[9] = 2,000 μg/mL, Vero E6, 100TCID50, 4 days

## CC1(C)[C@@H](O[C@H]2O[C@H](C(=O)O)[C@@H](O)[C@H](O)[C@H]2O[C@@H]2O[C@H](C(=O)O)[C@@H](O)[C@H](O)[C@H]2O)CC[C@]2(C)[C@H]3C(=O)C=C4[C@@H]5C[C@@](C)(C(=O)O)CC[C@]5(C)CC[C@@]4(C)[C@]3(C)CC[C@@H]12.N [Monoammonium glycyrrhizinate, monoammonium glycyrrhizinate, reference compound]
[1]; [8]
  Inhibition rate (%) on cytopathic effect: 23.35 ± 5.43%
[1]; [9]
  Inhibition rate (%) on cytopathic effect: 29.42 ± 7.16%
[1]
  inhibition of cytopathic effect caused by the novel coronavirus (in words): weak inhibition effect

## Lysozyme
[2]
  Claudin-1 mRNA Relative expression quantity: 0.79 ± 0.16
[3]
  IL-6 mRNA Relative expression quantity: 6.78 ± 0.30
[4]
  Content of FITC-glucan (serum): 27.53 ± 3.21 µg/mL
[5]; inhalation, 2 mg/kg
  Airway resistance: 3.10 ± 0.14 cmH2O · s
  Force expiratory volume in 100 ms: 7.68 ± 1.36 mL
[5]; oral administration, 200 mg/kg, model 4.18 ± 1.26, blank 11.86 ± 1.24
  Force expiratory volume in 100 ms: 5.79 ± 2.03 mL
[5]; oral administration, 200 mg/kg, model 4.72 ± 0.38, blank 1.43 ± 0.24
  Airway resistance: 3.79 ± 0.30 cmH2O · s
[6]
  Occludin mRNA Relative expression quantity: 0.69 ± 0.07
[1]; 350 μg/mL, Vero E6
  Inhibition rate (%) on cytopathic effect: 6.67 ± 1.56%
[1]; 500 μg/mL, Vero E6, 100TCID50, 4 days
  Inhibition rate (%) on cytopathic effect: 15.00 ± 8.66%
[1]; [8]
  Inhibition rate (%) on cytopathic effect: 46.67 ± 15.28%
[1]; [9]
  Inhibition rate (%) on cytopathic effect: 78.33 ± 2.89%
[1]
  inhibition of cytopathic effect caused by the novel coronavirus (in words): significantly inhibit
[7]
  TNF-α mRNA Relative expression quantity: 3.12 ± 0.26
